According to PMC6273138, “Inhibitory Effects of Aschantin on Cytochrome P450 and Uridine 5′-diphospho-glucuronosyltransferase Enzyme Activities in Human Liver Microsomes” (Molecules, 2016):
pIC50: −log10 of the molar value. Read-outs that look alike come from different tables or passages of the source.

Key:
CYP2C19 = CYP2C19 (Homo sapiens, UniProt P33261); test: CYP2C19-catalyzed [S]-mephenytoin 4′-hydroxylase inhibition in pooled human liver microsomes; conditions: for pIC50: CYP2C19 (S)-mephenytoin 4′-hydroxylase, 100 µM [S]-mephenytoin
Description: (§1) The degrees of inhibition (the IC50 values) of aschantin toward CYP1A2, CYP2A6, CYP2C8, CYP2C9, CYP2C19, CYP2D6, and CYP3A4 were evaluated using pooled human liver microsomes employing a cocktail of CYP substrates and liquid chromatography-tandem mass spectrometry (LC-MS/MS). […] After 3 min pre-incubation at 37 °C, the reactions were initiated by addition of NADPH and incubation proceeded for 15 min at 37 °C in a shaking water bath. The reaction was stopped by placing the tubes on ice and adding 100 µL amounts of ice-cold methanol containing internal standards (^13C2,^15N-acetaminophen for acetaminophen and N-desethylamodiaquine; d9-1′-hydroxybufuralol for 4′-hydroxydiclofenac; and 7-hydroxycoumarin, 4′-hydroxy-mephenytoin, 1′-hydroxybufuralol, and 1′-hydroxymidazolam). Then the incubation mixtures were centrifuged at 13,000× g for 4 min at 4 °C. All assays were performed in triplicate and the average values were used in calculations.
(§2) To this end, we employed a tandem mass spectrometer (TSQ Quantum Access, Thermo Scientific, San Jose, CA, USA) coupled to a Nanospace SI-2 LC system (Shiseido, Tokyo, Japan). The column and autosampler temperatures were 50 °C and 6 °C, respectively. The mass spectrometer was equipped with an electrospray ionization (ESI) source and was operated in positive ion mode. The ESI source settings for metabolite ionization were as follows: capillary voltage, 4200 V; vaporizer temperature, 350 °C; capillary temperature 330 °C; sheath gas pressure, 35 psi; and auxiliary gas pressure, 15 psi. […] Analytical data were processed using Xcalibur® software (Thermo Scientific).
The apparent kinetic inhibitory potentials (the Ki values) were estimated from the fitted curves using Enzyme Kinetics version 1.1 (Systat Software Inc.).

CYP2B6 = biological target: T1, CYP2B6 (Homo sapiens, UniProt P20813); test: CYP2B6-catalyzed bupropion hydroxylase inhibition in pooled human liver microsomes; assay type: in vitro ADME; conditions: for pIC50: CYP2B6 bupropion hydroxylase, 50 µM bupropion
T1 construct: tissue Corning Life Sciences 452161; host or cells: pooled human liver microsomes
T1 sequence (P20813 1-491): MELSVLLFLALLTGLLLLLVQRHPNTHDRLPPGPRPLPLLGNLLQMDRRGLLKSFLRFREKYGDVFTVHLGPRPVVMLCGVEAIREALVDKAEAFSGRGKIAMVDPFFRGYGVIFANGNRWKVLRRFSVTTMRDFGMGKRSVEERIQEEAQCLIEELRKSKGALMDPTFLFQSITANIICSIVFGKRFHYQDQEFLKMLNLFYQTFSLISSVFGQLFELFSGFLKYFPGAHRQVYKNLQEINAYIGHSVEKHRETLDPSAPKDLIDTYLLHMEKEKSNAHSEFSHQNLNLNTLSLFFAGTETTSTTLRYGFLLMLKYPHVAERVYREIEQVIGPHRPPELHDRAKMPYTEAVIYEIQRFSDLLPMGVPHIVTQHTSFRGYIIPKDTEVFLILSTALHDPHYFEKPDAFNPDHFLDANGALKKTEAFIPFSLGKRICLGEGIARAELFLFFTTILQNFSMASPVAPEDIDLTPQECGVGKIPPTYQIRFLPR
Description: The effects of aschantin on CYP2B6-catalyzed bupropion hydroxylase activity were evaluated using LC-MS/MS with pooled human liver microsomes. […] The reaction was initiated by adding bupropion. Hydroxybupropion levels were determined using the LC-MS/MS method described above; the SRM parameters were 256.1 > 238.0 for hydroxybupropion and 287.2 > 187.0 for d9-1′-hydroxybufuralol.

UGT1A9 = biological target: T2, UGT1A9 (Homo sapiens, UniProt O60656); test: UGT1A9-catalyzed mycophenolic acid glucuronidation inhibition in pooled human liver microsomes; assay type: in vitro ADME; conditions: 0.2 µM mycophenolic acid
T2 construct: using pooled human liver microsomes incubated with the cocktail of UGT substrates; tissue Corning Life Sciences 452161; host or cells: pooled human liver microsomes
T2 sequence (O60656 26-530): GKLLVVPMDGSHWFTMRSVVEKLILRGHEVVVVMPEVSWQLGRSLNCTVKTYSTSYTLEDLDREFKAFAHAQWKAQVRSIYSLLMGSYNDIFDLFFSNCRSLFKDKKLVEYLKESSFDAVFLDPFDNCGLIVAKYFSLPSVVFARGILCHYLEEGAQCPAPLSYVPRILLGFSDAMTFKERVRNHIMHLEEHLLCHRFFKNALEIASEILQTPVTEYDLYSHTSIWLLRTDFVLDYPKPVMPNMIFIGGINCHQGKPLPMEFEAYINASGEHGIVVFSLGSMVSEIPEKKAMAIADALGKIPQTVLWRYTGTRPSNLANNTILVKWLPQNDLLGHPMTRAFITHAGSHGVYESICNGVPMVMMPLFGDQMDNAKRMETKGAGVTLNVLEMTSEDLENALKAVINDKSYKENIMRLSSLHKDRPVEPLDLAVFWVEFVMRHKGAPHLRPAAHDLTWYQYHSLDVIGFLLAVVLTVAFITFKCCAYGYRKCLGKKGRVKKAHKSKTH
Description: The extents of aschantin on UGT1A1, UGT1A3, UGT1A4, UGT1A6, UGT1A9, and UGT2B7 were evaluated by LC-MS/MS, using pooled human liver microsomes incubated with the cocktail of UGT substrates. The method was modified from that of Joo et al..
The metabolites formed from the six UGT cocktail substrates were simultaneously measured using the LC-MS/MS method. […] The mass spectrometer was equipped with an ESI source and was operated in both positive and negative ion modes. […] Each metabolite was quantified via SRM in the negative ion (chenodeoxycholic acid 24-acyl-β-glucuronide, 567.2 > 391.0; mycophenolic acid glucuronide, 495.2 > 318.9; propofol glucuronide, 353.3 > 177.1) and positive ion (SN-38 glucuronide, 569.0 > 393.0; trifluoperazine glucuronide, 584.2 > 408.1; N-acetylserotonin-β-D-glucuronide, 395.2 > 219.0; naloxone 3-β-D-glucuronide, 504.0 > 310.0; meloxicam, 352.0 > 115.1) modes.

CYP2D6 = CYP2D6 (Homo sapiens, UniProt P10635); test: CYP2D6-catalyzed bufuralol 1′-hydroxylase inhibition in pooled human liver microsomes
Description: as §1, §2

[1] = aschantin at 100 µM, human liver microsomes

CYP2C19, sequence (P33261 whole entry): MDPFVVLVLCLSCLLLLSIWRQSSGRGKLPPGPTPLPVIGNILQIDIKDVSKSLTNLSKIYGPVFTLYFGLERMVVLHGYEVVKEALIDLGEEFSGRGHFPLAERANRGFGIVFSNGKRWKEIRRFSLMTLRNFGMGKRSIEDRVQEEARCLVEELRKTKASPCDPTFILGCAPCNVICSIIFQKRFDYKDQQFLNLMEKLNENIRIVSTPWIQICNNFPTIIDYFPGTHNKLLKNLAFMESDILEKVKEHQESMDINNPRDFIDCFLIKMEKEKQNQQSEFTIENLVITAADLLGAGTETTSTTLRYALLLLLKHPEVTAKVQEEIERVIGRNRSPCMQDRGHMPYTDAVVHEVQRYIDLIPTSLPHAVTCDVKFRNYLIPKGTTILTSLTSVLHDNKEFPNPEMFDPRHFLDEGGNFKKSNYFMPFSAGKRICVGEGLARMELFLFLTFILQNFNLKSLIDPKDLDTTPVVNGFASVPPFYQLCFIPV
CYP2D6, sequence (P10635 whole entry): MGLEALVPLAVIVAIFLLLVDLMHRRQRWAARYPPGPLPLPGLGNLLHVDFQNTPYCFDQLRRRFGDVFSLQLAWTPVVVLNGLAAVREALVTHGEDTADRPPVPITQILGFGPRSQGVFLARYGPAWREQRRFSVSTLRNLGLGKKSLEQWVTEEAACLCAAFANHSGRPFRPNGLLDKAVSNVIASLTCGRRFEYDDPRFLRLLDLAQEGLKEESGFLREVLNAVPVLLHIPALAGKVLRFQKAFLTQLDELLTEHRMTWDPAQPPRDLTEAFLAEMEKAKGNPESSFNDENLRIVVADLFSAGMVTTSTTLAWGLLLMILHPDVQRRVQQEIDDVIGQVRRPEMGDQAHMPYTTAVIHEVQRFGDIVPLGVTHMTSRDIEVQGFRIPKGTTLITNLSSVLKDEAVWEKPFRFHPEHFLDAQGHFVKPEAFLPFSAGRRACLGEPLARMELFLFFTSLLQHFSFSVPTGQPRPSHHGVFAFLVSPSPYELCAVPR

Structure (SMILES): COc1cc([C@H]2OC[C@H]3[C@@H]2CO[C@@H]3c2ccc3c(c2)OCO3)cc(OC)c1OC [Aschantin]
- pIC50 (CYP2C19; IC50 No Pre-incubation, pooled human liver microsomes, no pre-incubation): 4.64
- pIC50 (CYP2C19; IC50 With Pre-incubation, 30 min pre-incubation with microsomes and NADPH): 5.21
- IC50 shift at 0.5 h (CYP2C19; human, pooled human liver microsomes, pH 7.4, probe [S]-mephenytoin (100 µM), 4′-hydroxylation): > 2.5
- pIC50 (CYP2B6; 30 min pre-incubation with microsomes and NADPH, read-out: IC50 With Pre-incubation): 4.06
- pIC50 (CYP2B6; pooled human liver microsomes, no pre-incubation, read-out: IC50 No Pre-incubation): < 4.00
- inhibition of CYP2B6-mediated bupropion hydroxylation (CYP2B6; [1]): negligibly inhibited
- pIC50 (UGT1A9): 4.15
- pIC50 (CYP2D6): < 4.00
- inhibition of CYP2D6-mediated bufuralol 1′-hydroxylation (CYP2D6; [1]): negligibly inhibited
- pIC50 (CYP2D6; read-out: IC50 With Pre-incubation, CYP2D6 bufuralol 1′-hydroxylase, 5.0 µM bufuralol, 30 min pre-incubation with microsomes and NADPH): < 4.00
